Laboratory results: paper PMC10384572, “Marine Meroterpenoids Isolated from Gongolaria abies-marina Induce Programmed Cell Death in Naegleria fowleri” (Pharmaceuticals, 2023)
Read-outs that look alike come from different tables or passages of the source.

Key:
[1] = test system: N. fowleri ATCC® 30808; assay: In vitro activity against N. fowleri trophozoites (alamarBlue), strain ATCC 30808; assay type: cell-based, Naegleria fowleri; conditions: for IC90 / IC50: Naegleria fowleri; for Anti-Naegleria activity (in words): both tested strains of N. fowleri
Procedure: The in vitro activity against N. fowleri trophozoites was evaluated in two different strains from the American Type Culture Collection (LG Promochem, Barcelona, Spain), ATCC® 30808™ and ATCC® 30215™. Cells were axenically grown in 2% Bactocasitone (w/v) medium (Thermo Fisher Scientific, Madrid, Spain) at 37 °C. Moreover, 10% (v/v) of fetal bovine serum (FBS) 0.3 μg/mL of Penicillin G Sodium Salt and 0.5 mg/mL of Streptomycin sulphate (Sigma-Aldrich, Madrid, Spain) were also added to the Bactocasitone medium.
For these assays, a colorimetric assay was conducted using the alamarBlue® reagent. Briefly, N. fowleri trophozoites were seeded in duplicate in a 96-well microtiter plate. After that, different concentrations of the evaluated meroterpenoids diluted in fresh Bactocasitone were added to the wells. The negative control consisted on the trophozoites incubated with the medium alone. Lastly, the alamarBlue® (Life Technologies, Madrid, Spain) reagent was added. Plates were incubated in slight agitation at 37 °C. After 48 h, the fluorescence of the wells was analyzed in an EnSpire Multimode Plate Reader (Perkin Elmer, Madrid, Spain) using a wavelength of excitation of 570 nm and a wavelength of emission of 585 nm.
In order to calculate the IC50 and IC90, a nonlinear regression analysis with a 95% confidence limit was performed.
(§1) The in vitro IC50, IC90, and CC50 of the compounds were determined by a non-linear regression with a 95% confidence limit. The SigmaPlot 12.0 software (Systat Sofware Inc., London, UK) was used to perform the data analysis using a paired two-tailed t-test. Values of p < 0.05 were considered significant. The data represent the mean value and the SD of the conducted three different experiments.

[2] = In vitro cytotoxicity against murine macrophages (alamarBlue); assay type: cell-based; conditions: mouse, J774A.1 murine macrophages (ATCC TIB-67), murine macrophages J774A.1, 24 h, mean ± SD
Procedure: (§2) Murine macrophages from the J774A.1 cell line (ATCC® TIB-67) were maintained in Dulbecco’s Modified Eagle’s medium (DMEM) in order to evaluate the toxicity of the compounds. In addition, 10% (v/v) FBS and 10 μg/mL gentamicin (Sigma-Aldrich, Madrid, Spain) were added to the growth medium. Cells were grown in a 5% CO2 atmosphere at 37 °C.
(§3) For the cytotoxicity assays, the same protocol as detailed in Section 4.4 above was used. Murine macrophages were incubated with serial dilutions of the evaluated compounds at 37 °C in a 5% CO2 atmosphere over 24 h. The obtained data were analyzed as described in the previous section in order to calculate the CC50.
as §1

[3] = test system: N. fowleri ATCC® 30808 trophozoites; assay: Chromatin condensation detection (Hoechst 33342/propidium iodide); assay type: cell-based, Naegleria fowleri; conditions: IC90 of compound, 24 h
Procedure: The evaluation of the programmed cell death induction by the meroterpenoids was performed in the ATCC® 30808™ N. fowleri trophozoites. Cells were incubated over 24 h with the IC90 (Table 1) of the compounds at 37 °C. In these experiments, the presence of different metabolic events which are characteristics of the programmed cell death process were evaluated. For this, five different apoptosis events marker kits (the Hoechst 33342/Propidium Iodide, SYTOX™ Green kit, CellROX® Deep Reagent, JC-1 Mitochondrial Membrane Potential Detection Kit, and the Celltiter-Glo® Luminescent Cell Viability Assay) were used according to manufacturer’s instructions. Furthermore, the percentage of stained cells was determined after incubating the treated and non-treated cells with the stains. For the chromatin condensation assay, the Hoechst 33342 and the PI (Life Technologies, Madrid, Spain) were used. The images were captured in the EVOS™ M5000 Imaging System (Invitrogen by Thermo Fisher Scientific). A concentration of 5 × 10^5 cell/mL was seeded and incubated with compounds over 24 h. Three different cell population can be distinguished with this kit. Firstly, healthy cells will barely show blue fluorescence whereas in the presence of condensed chromatin an intense blue fluorescence corresponding to the Hoechst 33342 stain will be observable. Finally, dead cells will show red fluorescence due to the linkage between the nucleus and the PI. In the PCD assays, the number of stained and unstained cells was measured after the performance of the experiments. Regarding the JC-1 Mitochondrial Membrane Potential assays, the ratio between the emitted red fluorescence (at 595 nm) and green fluorescence (at 535 nm) was determined. For each kit, images (×40) with at least 80 cells were selected and analyzed. […] The graphs illustrate the mean value ± SD of three different tests. Finally, a one-way analysis of variance (ANOVA) was assessed to determine the statistical differences between the treated cells and the negative control amoebae, ** p < 0.01; *** p < 0.001; **** p < 0.0001 significant differences.

[4] = test system: N. fowleri ATCC® 30808 trophozoites; assay: Mitochondrial membrane potential (JC-1); assay type: cell-based, Naegleria fowleri; conditions: IC90 of compound, 24 h
Procedure: The evaluation of the programmed cell death induction by the meroterpenoids was performed in the ATCC® 30808™ N. fowleri trophozoites. Cells were incubated over 24 h with the IC90 (Table 1) of the compounds at 37 °C. In these experiments, the presence of different metabolic events which are characteristics of the programmed cell death process were evaluated. For this, five different apoptosis events marker kits (the Hoechst 33342/Propidium Iodide, SYTOX™ Green kit, CellROX® Deep Reagent, JC-1 Mitochondrial Membrane Potential Detection Kit, and the Celltiter-Glo® Luminescent Cell Viability Assay) were used according to manufacturer’s instructions. Furthermore, the percentage of stained cells was determined after incubating the treated and non-treated cells with the stains. The mitochondrial damage was evaluated using two different reagents. Firstly, the JC-1 Mitochondrial Membrane Potential Detection Kit (Cayman Chemicals Vitro SA, Madrid, Spain) was used to assess the failure of the mitochondrial membrane potential. Cells were incubated with the compounds at 37 °C to finally add the JC-1 reagent after 24 h. The JC-1 dye is presented in the mitochondria of untreated cells in aggregate form and emits red fluorescence. However, when the membrane potential decreases (unhealthy cells) the dye is presented in monomers, emitting green fluorescence. Images were obtained with an EVOS™ M5000 Imaging System (Invitrogen by Thermo Fisher Scientific). In the PCD assays, the number of stained and unstained cells was measured after the performance of the experiments. Regarding the JC-1 Mitochondrial Membrane Potential assays, the ratio between the emitted red fluorescence (at 595 nm) and green fluorescence (at 535 nm) was determined. For each kit, images (×40) with at least 80 cells were selected and analyzed. […] The graphs illustrate the mean value ± SD of three different tests. Finally, a one-way analysis of variance (ANOVA) was assessed to determine the statistical differences between the treated cells and the negative control amoebae, ** p < 0.01; *** p < 0.001; **** p < 0.0001 significant differences.

[5] = test system: Murine macrophages J774A.1 (ATCC® TIB-67); assay: In vitro cytotoxicity against murine macrophages (alamarBlue); assay type: cell-based; conditions: murine macrophages J774A.1, 24 h, mean ± SD
Procedure: as §2, §3, §1

[6] = ATCC30808, N. fowleri trophozoites, 48 h, alamarBlue, mean ± SD
[7] = ATCC30808, N. fowleri trophozoites, 48 h, alamarBlue, mean ± SD, read-out: IC50 ATCC® 30808
[8] = ATCC 30215 / ATCC 30808, range over the named compounds and both strains (ATCC 30808 and ATCC 30215), read-out: IC50 against N. fowleri

Compound	IC90 [1, 6]	IC50 [1, 7]	Anti-Naegleria activity (in words) [1]	CC50 at 24 h [2]	CC90 at 24 h [2]	Apoptotic phase suggested by Hoechst/PI staining [3]	Chromatin condensation (Hoechst 33342 stain) [3]	Propidium iodide (PI) red fluorescence [3]	Mitochondrial membrane potential (JC-1) [4]	IC50 [1, 8]	Selectivity index (SI) ([1]; cytotoxicity in murine macrophages versus activity against N. fowleri)	CC50 [5]
COc1c(C)cc(O)cc1C/C=C(\C)CC(=O)C/C(C)=C/CC[C@@H](C)C(=O)/C=C/C(C)(C)O [Gongolarone B (1), gongolarone B]	58 ± 1.73 µM	21.9 ± 1.6 µM	active	25.6 ± 4.16 µM	72.9 ± 5.94 µM	late apoptotic phase	induced DNA condensation	showed red fluorescence	mitochondrial membrane potential disruption	–	–	–
COc1c(C)cc(O)cc1C/C=C(\C)CC(=O)/C=C(/C)CCC[C@@H](C)C(=O)/C=C/C(C)(C)O [6Z-1′Methoxyamentadione (2), 6Z-1′-methoxyamentadione]	55.3 ± 8.28 µM	20.4 ± 4.07 µM	active	26.6 ± 4.03 µM	67.2 ± 6.32 µM	late apoptotic phase	induced DNA condensation	showed red fluorescence	mitochondrial membrane potential disruption	13.3 to 20.4 µM	–	–
COc1c(C)cc(O)cc1C/C=C(\C)CC(=O)/C=C(\C)CCC[C@@H](C)C(=O)/C=C/C(C)(C)O [1′Methoxyamentadione (3), 1′-methoxyamentadione]	64.9 ± 6.94 µM	19.9 ± 5.27 µM	active	26.2 ± 2.25 µM	68.7 ± 7.46 µM	early apoptotic phase	induced DNA condensation	no red fluorescence	mitochondrial membrane potential disruption	13.3 to 20.4 µM	–	–
COc1c(C)cc(O)cc1C/C=C(\C)CC(=O)/C=C(\C)CCCC(C)=O [Cystomexicone B (6), cystomexicone B]	206 ± 16.6 µM	58.9 ± 10.1 µM	active	> 279 µM	> 500 µM	early apoptotic phase	induced DNA condensation	no red fluorescence	mitochondrial membrane potential disruption	–	> 8.5	> 500 µM
